Experiments:
[1] = test system: ataxia induced by ethanol; test: Ataxia induced by ethanol, rotarod test; type: in vivo, BALB/c mice
Description: Previously trained and selected BALB/c mice weighing 16 to 18 g. each were treated with a 40 mg./kg. dose of the compound to be tested orally, one hour before the intraperitoneal administration of a 2.5 g./kg. dose of ethanol. The number of the animals remaining on the rods 60, 90 and 120 minutes, resp., after treatment with ethanol was determined. The animals having an intact coordination could stay at the rod as long as 120 minutes. The test was carried out on groups of ten.

in vivo = conditions: rat, oral, male Hann.-Wistar rats, 14 days observation, probit analysis
Description: The acute toxicity of the compounds according to the invention was tested on male Hann.-Wistar rats each weighing 160 to 180 g. The animals were treated with various doses of the test compounds orally, and the dose resulting in the perish of 50% of the animals was calculated by probite analysis from the %-age of the perished animals.

ethanolic narcosis = test: Ethanolic narcosis period (righting reflex); type: in vivo, Hann.-Wistar rats; conditions: for Ethanolic narcosis period (x ± S.E. %), related to control: 1 h before 3.5 g/kg ethanol i.p., n=10
Description: The change of ethanolic narcosis period was tested on Hann.-Wistar rats of both sexes weighing 160 to 180 g. each, which were fasted for 16 hours prior to treatment. Groups of ten were treated with various doses of a test compound of the formula (I), orally. One hour after treatment the rats were administered a 3.5 g./kg. dose of ethanol intraperitoneally. The narcosis period of the animals was measured from the elapse of the righting reflex until a spontaneous correction of the body position. The average of the narcosis period and the percentage difference related to the control were calculated. The control group was treated with placebo and a […]. dose of ethanol. Control narcosis period: 99.6±6.55 (x±S.E.) min.

[2] = test system: ethanolic locomotor activity; test: Locomotor activity change by ethanol (Animex BSE motimeter); type: in vivo, BALB/c mice; conditions: n=15
Description: The change of ethanolic locomotor activity was tested on BALB/c mice of both sexes, weighing 16 to 18 g. each. Groups of 15 were treated with a 40 mg./kg. oral dose of the test compound 60 minutes prior to the administration of placebo and 2 g./kg. ethanol, respectively (i.p.).
The control animals were treated with placebo. The locomotor activity of the animals was measured for two hours with an Animex BSE motimeter.

[3] = test system: alcoholic intoxication, narcosis; conditions: Sprince et al. 1974; Nagasawa et al. 1975; cited from earlier work
[4] = test system: ethanolic locomotoric hyperactivity; conditions: mice, Carlsson et al. 1972, cited from earlier work

SMILES: CCC(O)(c1cccc(C(F)(F)F)c1)c1ccc(O)cc1O (stereo not drawn) [A, 4-[1-(3-trifluoromethylphenyl)-1-hydroxypropyl]-resorcin]
- Animals remaining on the rotating rod (%) ([1]; 40 mg/kg oral + 2500 mg/kg ethanol i.p., 60 min): 40%
- Animals remaining on the rotating rod (%) ([1]; 40 mg/kg oral + 2500 mg/kg ethanol i.p., 90 min): 60%
- Animals remaining on the rotating rod (%) ([1]; 40 mg/kg oral + 2500 mg/kg ethanol i.p., 120 min): 100%
- Animals remaining on the rotating rod (%) ([1]; 40 mg/kg oral, no ethanol, 60 min): 100%
- Animals remaining on the rotating rod (%) ([1]; 40 mg/kg oral, no ethanol, 90 min): 100%
- Animals remaining on the rotating rod (%) ([1]; 40 mg/kg oral, no ethanol, 120 min): 100%
- LD50 at 336 h (in vivo): 1250 mg/kg
- Ethanolic narcosis period (x ± S.E. %), related to control (ethanolic narcosis; 0.3 mg/kg orally): 70 ± 11.4%
- Ethanolic narcosis period (x ± S.E. %), related to control (ethanolic narcosis; 1.0 mg/kg orally): 60 ± 9.2%
- Ethanolic narcosis period (x ± S.E. %), related to control (ethanolic narcosis; 5.0 mg/kg orally): 36 ± 4.0%
- Ethanolic narcosis period (x ± S.E. %), related to control (ethanolic narcosis; 20.0 mg/kg orally): 30 ± 5.5%
- Total locomotor motion/2 hours in % of the control ([2]; 40 mg/kg oral + placebo (no ethanol)): 110 ± 10.3%
- Total locomotor motion/2 hours in % of the control ([2]; 40 mg/kg oral, 60 min before 2000 mg/kg ethanol i.p.): 98 ± 9.5%

SMILES: N[C@@H](CS)C(=O)O [L-cysteine, reference compound]
- Alcoholic intoxication, narcosis duration [3]: shortened
- Ethanolic narcosis period (x ± S.E. %), related to control (ethanolic narcosis; 500.0 mg/kg orally): 63 ± 4.2%
- Dose dependence of effect on ethanolic narcosis period (ethanolic narcosis; rats, oral): dose-dependent, unlike that of L-cysteine

SMILES: CC(N)(Cc1ccc(O)cc1)C(=O)O (stereo not drawn) [α-Methyl-para-tyrosine]
- Spontaneous locomotoric activity ([4]; same dose range): decreases the spontaneous locomotoric activity
- Ethanolic locomotoric hyperactivity [4]: normalizes the ethanolic locomotoric hyperactivity

Reference: patent publication US4510338A, “Resorcin derivatives, process for their preparation and pharmaceutical compositions containing them” (priority 1982, dated 1985)
